According to EP4810052A2, “HCRHR2 SELECTIVE POLYPEPTIDES” (Gubra A/S, priority 2023, dated 2026):
Read-outs that look alike come from different tables or passages of the source. Starred links: 1 amine or outer side, 2 acyl side, 3 side chain; linkers in the order of their positions; H or OH if unused. Non-standard residues stand in square brackets, D forms with d. Residues, ends and D or L forms follow the SMILES beside them. Groups on a side chain read outwards from the residue. *: point of attachment. C20 diacid = O=C(O)CCCCCCCCCCCCCCCCCCC(=O)*; γGlu = O=C(O)[C@H](CCC(=O)[*:2])N[*:1]; Nle = CCCC[C@H](N)C(=O)O; AEEA = NCCOCCOCC(=O)O

Experiments:
[1] = target: T1, hCRHR2 (Homo sapiens, UniProt Q13324); test: HTRF cAMP assay, determination of hCRHR2 potency (peptide libraries 5 conc., purified peptides 11 conc.); assay type: cell-based
T1 sequence (Q13324 1-411): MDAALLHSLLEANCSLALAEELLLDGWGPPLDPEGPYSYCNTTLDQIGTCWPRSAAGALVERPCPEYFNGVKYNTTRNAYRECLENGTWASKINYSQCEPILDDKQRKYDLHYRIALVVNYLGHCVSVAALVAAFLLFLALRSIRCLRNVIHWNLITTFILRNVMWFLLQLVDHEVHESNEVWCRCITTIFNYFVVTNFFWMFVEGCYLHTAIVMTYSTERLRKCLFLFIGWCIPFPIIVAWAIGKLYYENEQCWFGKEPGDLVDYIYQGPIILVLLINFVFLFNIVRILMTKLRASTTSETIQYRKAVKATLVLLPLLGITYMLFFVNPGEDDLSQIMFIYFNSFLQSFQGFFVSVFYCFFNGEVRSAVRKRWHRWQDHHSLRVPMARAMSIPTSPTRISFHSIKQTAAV
In short: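 Frozen stocks of hCRHR2-expressing CHO-K1 cells, thawed just before testing, received peptide agonists in suspension; cAMP quantified by competitive HTRF immunoassay, with curves fitted by nonlinear regression (variable slope) for EC50.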

[2] = target: T2, hCRHR1 (Homo sapiens, UniProt P34998); test: HTRF cAMP assay, determination of hCRHR1 potency (peptide libraries 5 conc., purified peptides 11 conc.); assay type: cell-based
T2 sequence (P34998 24-415): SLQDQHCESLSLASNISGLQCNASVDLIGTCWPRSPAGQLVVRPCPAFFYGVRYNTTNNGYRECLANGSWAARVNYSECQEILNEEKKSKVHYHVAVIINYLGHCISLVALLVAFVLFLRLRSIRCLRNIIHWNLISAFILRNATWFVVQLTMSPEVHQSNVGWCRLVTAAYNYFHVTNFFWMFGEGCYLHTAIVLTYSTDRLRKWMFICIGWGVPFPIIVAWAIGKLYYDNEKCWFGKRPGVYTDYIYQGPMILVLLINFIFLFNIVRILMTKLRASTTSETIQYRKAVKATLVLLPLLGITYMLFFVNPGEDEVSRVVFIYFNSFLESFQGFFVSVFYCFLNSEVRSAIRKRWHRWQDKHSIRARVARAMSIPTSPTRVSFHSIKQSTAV
In short: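 Cellular cAMP was read by time-resolved FRET between d2-labelled cAMP and cryptate anti-cAMP antibody. The cells were freshly thawed suspension CHO-K1 cells stably expressing human CRHR1.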

[3] = library peptides, matched molecular pairs L vs Nle in position X^38, read-out: Potency hCRHR2 pEC50 (converted)
[4] = library peptides, matched molecular pairs L vs Nle in position X^38, read-out: Potency hCRHR1 pEC50 (converted)

In the case of `CCCC[C@H](NC(=O)[C@@H](NC(=O)[C@H](CCC(=O)O)NC(=O)[C@H](C)NC(=O)[C@H](CC(N)=O)NC(=O)[C@@H](NC(=O)[C@H](CCCCNC(=O)COCCOCCNC(=O)COCCOCCNC(=O)CC[C@H](NC(=O)CC[C@H](NC(=O)CCCCCCCCCCCCCCCCCCC(=O)O)C(=O)O)C(=O)O)NC(=O)[C@H](C)NC(=O)[C@H](CCCNC(=N)N)NC(=O)[C@H](CCC(=O)O)NC(=O)[C@H](CCCNC(=N)N)NC(=O)[C@H](C)NC(=O)[C@H](C)NC(=O)[C@H](CCCNC(=N)N)NC(=O)[C@H](C)NC(=O)[C@H](CCCNC(=N)N)NC(=O)[C@H](C)NC(=O)[C@H](CCC(N)=O)NC(=O)[C@H](CCC(=O)O)NC(=O)[C@H](CC(C)C)NC(=O)[C@H](CC(C)C)NC(=O)[C@@H](NC(=O)[C@H](CCC(N)=O)NC(=O)[C@H](CC(C)C)NC(=O)[C@H](CC(C)C)NC(=O)CNC(=O)[C@@H](NC(=O)[C@@H]1CCCN1C(=O)[C@@H](NC(=O)[C@H](CC(=O)O)NC(=O)[C@H](CC(C)C)NC(=O)[C@H](CO)NC(=O)[C@H](CC(C)C)NC(=O)[C@@H](NC(=O)[C@@H](N)[C@@H](C)CC)C(C)C)C(C)C)[C@@H](C)CC)[C@@H](C)CC)[C@@H](C)O)[C@@H](C)CC)C(=O)N[C@@H](C)C(=O)N[C@@H](CCC(=O)O)C(=O)N[C@H](C(N)=O)C(C)C` [compound 67] (H-IVLSLDVPIGLLQILLEQARARAARERAK([AEEA-AEEA-γGlu-γGlu-C20 diacid])TNAEI[Nle]AEV-NH2), the EC50 [1] is reported as 0.126 nM and the EC50 [2] is reported as 2000 nM.
`CC[C@H](C)[C@H](N)C(=O)N[C@H](C(=O)N[C@@H](CC(C)C)C(=O)N[C@@H](CO)C(=O)N[C@@H](CC(C)C)C(=O)N[C@@H](CC(=O)O)C(=O)N[C@H](C(=O)N1CCC[C@H]1C(=O)N[C@H](C(=O)NCC(=O)N[C@@H](CC(C)C)C(=O)N[C@@H](CC(C)C)C(=O)N[C@@H](CCC(N)=O)C(=O)N[C@H](C(=O)N[C@@H](CC(C)C)C(=O)N[C@@H](CC(C)C)C(=O)N[C@@H](CCC(=O)O)C(=O)N[C@@H](CCC(N)=O)C(=O)N[C@@H](C)C(=O)N[C@@H](CCCNC(=N)N)C(=O)N[C@@H](C)C(=O)N[C@@H](CCCNC(=N)N)C(=O)N[C@@H](C)C(=O)N[C@@H](C)C(=O)N[C@@H](CCCNC(=N)N)C(=O)N[C@@H](CCC(=O)O)C(=O)N[C@@H](CCC(N)=O)C(=O)N[C@@H](C)C(=O)N[C@@H](CCCCNC(=O)COCCOCCNC(=O)COCCOCCNC(=O)CC[C@H](NC(=O)CC[C@H](NC(=O)CCCCCCCCCCCCCCCCCCC(=O)O)C(=O)O)C(=O)O)C(=O)N[C@H](C(=O)N[C@@H](CC(N)=O)C(=O)N[C@@H](C)C(=O)N[C@@H](CCC(=O)O)C(=O)N[C@H](C(=O)N[C@@H](CC(C)C)C(=O)N[C@@H](C)C(=O)N[C@@H](CCC(=O)O)C(=O)N[C@H](C(N)=O)[C@@H](C)CC)[C@@H](C)CC)[C@@H](C)O)[C@@H](C)CC)[C@@H](C)CC)C(C)C)C(C)C` [compound 68] (H-IVLSLDVPIGLLQILLEQARARAAREQAK([AEEA-AEEA-γGlu-γGlu-C20 diacid])TNAEILAEI-NH2) showed an EC50 [1, 3] of 0.251 nM and an EC50 [2, 4] of 63100 nM.
With `CC[C@H](C)[C@H](N)C(=O)N[C@H](C(=O)N[C@@H](CC(C)C)C(=O)N[C@@H](CO)C(=O)N[C@@H](CC(C)C)C(=O)N[C@@H](CC(=O)O)C(=O)N[C@H](C(=O)N1CCC[C@H]1C(=O)N[C@H](C(=O)NCC(=O)N[C@@H](CC(C)C)C(=O)N[C@@H](CC(C)C)C(=O)N[C@@H](CCC(N)=O)C(=O)N[C@H](C(=O)N[C@@H](CC(C)C)C(=O)N[C@@H](CC(C)C)C(=O)N[C@@H](CCC(=O)O)C(=O)N[C@@H](CCC(N)=O)C(=O)N[C@@H](C)C(=O)N[C@@H](CCCNC(=N)N)C(=O)N[C@@H](C)C(=O)N[C@@H](CCCNC(=N)N)C(=O)N[C@@H](CO)C(=O)N[C@@H](CCC(N)=O)C(=O)N[C@@H](CCCNC(=N)N)C(=O)N[C@@H](CCC(=O)O)C(=O)N[C@@H](CCC(=O)O)C(=O)N[C@@H](C)C(=O)N[C@@H](CCCCNC(=O)COCCOCCNC(=O)COCCOCCNC(=O)CC[C@H](NC(=O)CC[C@H](NC(=O)CCCCCCCCCCCCCCCCCCC(=O)O)C(=O)O)C(=O)O)C(=O)N[C@H](C(=O)N[C@@H](CC(N)=O)C(=O)N[C@@H](C)C(=O)N[C@@H](CCC(=O)O)C(=O)N[C@H](C(=O)N[C@@H](CC(C)C)C(=O)N[C@@H](C)C(=O)N[C@@H](CCC(=O)O)C(=O)N[C@H](C(N)=O)C(C)C)[C@@H](C)CC)[C@@H](C)O)[C@@H](C)CC)[C@@H](C)CC)C(C)C)C(C)C` [compound 70] (H-IVLSLDVPIGLLQILLEQARARSQREEAK([AEEA-AEEA-γGlu-γGlu-C20 diacid])TNAEILAEV-NH2) the EC50 [1, 3] was 1.26 nM and the EC50 [2, 4] was 158000 nM.
`CCCC[C@H](NC(=O)[C@@H](NC(=O)[C@H](CCC(=O)O)NC(=O)[C@H](C)NC(=O)[C@H](CC(N)=O)NC(=O)[C@@H](NC(=O)[C@H](CCCCNC(=O)COCCOCCNC(=O)COCCOCCNC(=O)CC[C@H](NC(=O)CC[C@H](NC(=O)CCCCCCCCCCCCCCCCCCC(=O)O)C(=O)O)C(=O)O)NC(=O)[C@H](C)NC(=O)[C@H](CCC(=O)O)NC(=O)[C@H](CCC(=O)O)NC(=O)[C@H](CCCNC(=N)N)NC(=O)[C@H](CCC(N)=O)NC(=O)[C@H](CO)NC(=O)[C@H](CCCNC(=N)N)NC(=O)[C@H](C)NC(=O)[C@H](CCCNC(=N)N)NC(=O)[C@H](C)NC(=O)[C@H](CCC(N)=O)NC(=O)[C@H](CCC(=O)O)NC(=O)[C@H](CC(C)C)NC(=O)[C@H](CC(C)C)NC(=O)[C@@H](NC(=O)[C@H](CCC(N)=O)NC(=O)[C@H](CC(C)C)NC(=O)[C@H](CC(C)C)NC(=O)CNC(=O)[C@@H](NC(=O)[C@@H]1CCCN1C(=O)[C@@H](NC(=O)[C@H](CC(=O)O)NC(=O)[C@H](CC(C)C)NC(=O)[C@H](CO)NC(=O)[C@H](CC(C)C)NC(=O)[C@@H](NC(=O)[C@@H](N)[C@@H](C)CC)C(C)C)C(C)C)[C@@H](C)CC)[C@@H](C)CC)[C@@H](C)O)[C@@H](C)CC)C(=O)N[C@@H](C)C(=O)N[C@@H](CCC(=O)O)C(=O)N[C@H](C(N)=O)C(C)C` [compound 71] (H-IVLSLDVPIGLLQILLEQARARSQREEAK([AEEA-AEEA-γGlu-γGlu-C20 diacid])TNAEI[Nle]AEV-NH2) gave an EC50 [1, 3] of 0.631 nM and an EC50 [2, 4] of 100000 nM.
With `CC[C@H](C)[C@H](N)C(=O)N[C@H](C(=O)N[C@@H](CC(C)C)C(=O)N[C@@H](CO)C(=O)N[C@@H](CC(C)C)C(=O)N[C@@H](CC(=O)O)C(=O)N[C@H](C(=O)N1CCC[C@H]1C(=O)N[C@H](C(=O)NCC(=O)N[C@@H](CC(C)C)C(=O)N[C@@H](CC(C)C)C(=O)N[C@@H](CCC(N)=O)C(=O)N[C@H](C(=O)N[C@@H](CC(C)C)C(=O)N[C@@H](CC(C)C)C(=O)N[C@@H](CCC(=O)O)C(=O)N[C@@H](CCC(N)=O)C(=O)N[C@@H](C)C(=O)N[C@@H](CCCNC(=N)N)C(=O)N[C@@H](C)C(=O)N[C@@H](CCCNC(=N)N)C(=O)N[C@@H](CCC(N)=O)C(=O)N[C@@H](CC(C)C)C(=O)N[C@@H](CCCNC(=N)N)C(=O)N[C@@H](CCC(=O)O)C(=O)N[C@@H](CCC(N)=O)C(=O)N[C@@H](C)C(=O)N[C@@H](CCCCNC(=O)COCCOCCNC(=O)COCCOCCNC(=O)CC[C@H](NC(=O)CC[C@H](NC(=O)CCCCCCCCCCCCCCCCCCC(=O)O)C(=O)O)C(=O)O)C(=O)N[C@H](C(=O)N[C@@H](CC(N)=O)C(=O)N[C@@H](C)C(=O)N[C@@H](CCC(=O)O)C(=O)N[C@H](C(=O)N[C@@H](CC(C)C)C(=O)N[C@@H](C)C(=O)N[C@@H](CCC(=O)O)C(=O)N[C@H](C(N)=O)C(C)C)[C@@H](C)CC)[C@@H](C)O)[C@@H](C)CC)[C@@H](C)CC)C(C)C)C(C)C` [compound 72] (H-IVLSLDVPIGLLQILLEQARARQLREQAK([AEEA-AEEA-γGlu-γGlu-C20 diacid])TNAEILAEV-NH2) the EC50 [1, 3] was 0.316 nM and the EC50 [2, 4] was 251 nM.
